Our source for the Ki values is patent US7820827B2, “Substituted piperidine compounds and methods of their use” (Adolor Corporation, priority 2003, dated 2010).

The term Ki denotes the equilibrium dissociation constant of an inhibitor or competing ligand from its target.

For test [1], the target named is T1, cloned human δ opioid receptor (Homo sapiens, UniProt P41143).
T1 construct: expressed in transfected cells
The experiment in a line: [3H]diprenorphine receptor binding, δ opioid receptor. Particulars: [3H]diprenorphine displacement; read-out: affinity (expressed as Ki value) to the δ opioid receptor. The procedure: (§1) Ki values were obtained by Cheng-Prusoff corrections of IC50 values.
(§2) After dilution in buffer A and homogenization as before, membrane proteins (10-80 μg) in 250 μL were added to mixtures containing test compound and [^3H]diprenorphine (0.5 to 1.0 nM, 40,000 to 50,000 dpm) in 250 μL of buffer A in 96-well deep-well polystyrene titer plates (Beckman). After incubation at room temperature for one hour, the samples were filtered through GF/B filters that had been presoaked in a solution of 0.5% (w/v) polyethylenimine and 0.1% (w/v) bovine serum albumin in water. The filters were rinsed 4 times with 1 mL of cold 50 mM Tris HCl, pH 7.8 and radioactivity remaining on the filters determined by scintillation spectroscopy. Nonspecific binding was determined by the minimum values of the titration curves and was confirmed by separate assay wells containing 10 μM naloxone.
(§3) To determine the equilibrium dissociation constant for the inhibitors (Ki), radioligand bound (cpm) in the presence of various concentrations of test compounds was measured. The concentration to give half-maximal inhibition (EC50) of radioligand binding was determined from a best nonlinear regression fit to the following equation,
(§4) The nonlinear regression fit was performed using the program Prism® (GraphPad Software, San Diego, Calif.). The Ki values were then determined from the EC50 values by the following equation, […]

The target in test [2] is T2, cloned human κ opioid receptor (Homo sapiens, UniProt P41145).
T2 construct: expressed in transfected cells
T2 sequence (P41145 whole entry): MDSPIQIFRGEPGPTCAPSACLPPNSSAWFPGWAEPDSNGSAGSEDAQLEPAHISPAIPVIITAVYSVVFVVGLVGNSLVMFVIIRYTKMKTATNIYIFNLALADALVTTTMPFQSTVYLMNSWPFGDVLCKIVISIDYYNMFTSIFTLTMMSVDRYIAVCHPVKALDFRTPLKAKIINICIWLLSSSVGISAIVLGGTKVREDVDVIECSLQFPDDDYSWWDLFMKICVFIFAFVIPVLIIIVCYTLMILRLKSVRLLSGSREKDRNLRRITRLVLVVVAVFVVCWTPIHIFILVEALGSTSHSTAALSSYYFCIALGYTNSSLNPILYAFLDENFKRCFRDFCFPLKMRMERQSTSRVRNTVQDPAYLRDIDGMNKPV
Briefly: [3H]diprenorphine receptor binding, κ opioid receptor. Particulars: [3H]diprenorphine displacement; read-out: affinity (expressed as Ki value) to the κ opioid receptor. As for the experimental part:
as §1, §2, §3, §4

T1 sequence (P41143 whole entry): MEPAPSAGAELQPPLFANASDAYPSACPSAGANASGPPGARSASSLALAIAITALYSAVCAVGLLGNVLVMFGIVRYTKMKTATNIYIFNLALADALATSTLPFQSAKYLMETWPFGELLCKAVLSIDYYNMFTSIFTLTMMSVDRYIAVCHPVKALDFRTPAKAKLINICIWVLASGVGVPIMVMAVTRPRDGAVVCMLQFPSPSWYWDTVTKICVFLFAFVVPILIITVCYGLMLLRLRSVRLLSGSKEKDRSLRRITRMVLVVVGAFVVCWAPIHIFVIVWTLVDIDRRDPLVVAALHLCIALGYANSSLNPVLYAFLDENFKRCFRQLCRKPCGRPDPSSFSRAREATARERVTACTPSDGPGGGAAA

For the compound `C[C@H]1CN(C[C@H](Cc2ccccc2)C(=O)N[C@@H](CCCN)C(=O)O)CC[C@@]1(C)c1cccc(O)c1` [Example 28, 5-Amino-2(S)-{2(S)-benzyl-3-[4(R)-(3-hydroxy-phenyl)-3(R),4-dimethyl-piperidin-1-yl]-propionylamino}-pentanoic acid], the Ki in test [1] was 510 nM; in test [2], 200 nM.
